Among the data in paper PMC3161736 (2011) are IC50 values, retold here.

The assay deals with TATA box-containing oligonucleotide (DNA, duplex) GAAGGGGGGCTATAAAAGGGGGTG/CACCCCCTTTTATAGCCCCCCTTC
The assay can be described thus: EMSA, inhibition of TBP binding to TATA box probe. The settings on record: LightShift chemiluminescent EMSA; probe preincubated with BBR; TBP from PC12 nuclear extract displaced; apparent. For orientation: In EMSA bound probe runs differently from free probe, usually more slowly.

Each structure is given as a SMILES string.

As for `COc1ccc2cc3[n+](cc2c1OC)CCc1cc2c(cc1-3)OCO2`, the IC50 worked out at 0.3985 µmol.
